Assay results taken from ChEMBL document CHEMBL1201862, “PubChem BioAssay data set” (2004).
Calls of active or inactive are those of the source.

Assays:
Cytochrome P450 3A4 = Cytochrome P450 3A4 (Homo sapiens, UniProt P08684); settings: Potency;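 note: confirmatory qHTS run detecting inhibitors and substrates of CYP3A4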
[1] = luciferase reporter signal reduction – luminescence, H4-C neuroglioblastoma cells, dose response (AID 2458); format: functional, cell-based;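 note: H4 neuroglioblastoma cells stably carrying a luciferase reporter gene fusion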
[2] = inhibitors of firefly luciferase expression or activity, dose response, H4 neuroglioma cells, luminescence (AID 1990); format: functional, cell-based
cells = format: functional, cell-based
[3] = inhibitors of SNCA 5'UTR-driven reporter translation, confirmation, H4 neuroglioma cells, luminescence (AID 1988); format: functional, cell-based
[4] = Luminescence Cell-Based Dose Response HTS to Identify Inhibitors of 5'UTR Stem-Loop Driven Prion Protein mRNA Translation in H4 Neuroglioblastoma Cells. [Related pubchem assays: 1827 (Project Summary), 1813 (Primary HTS)]; format: functional
[5] = inhibitors of SNCA 5'UTR-driven translation, confirmation, luminescence, H4 neuroglioblastoma cells, dose confirmation (AID 2454); format: functional, cell-based;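 note: H4 neuroglioblastoma cells carrying an alpha-synuclein 5'UTR luciferase reporter; potency for inhibition of the luciferase signal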
[6] = molecular target: T1, Intestinal-type alkaline phosphatase (Homo sapiens, UniProt P09923); experiment: human intestinal alkaline phosphatase activators, dose response, biochemical, luminescence, uHTS hits (AID 463120); format: functional
T1 sequence (P09923 whole entry): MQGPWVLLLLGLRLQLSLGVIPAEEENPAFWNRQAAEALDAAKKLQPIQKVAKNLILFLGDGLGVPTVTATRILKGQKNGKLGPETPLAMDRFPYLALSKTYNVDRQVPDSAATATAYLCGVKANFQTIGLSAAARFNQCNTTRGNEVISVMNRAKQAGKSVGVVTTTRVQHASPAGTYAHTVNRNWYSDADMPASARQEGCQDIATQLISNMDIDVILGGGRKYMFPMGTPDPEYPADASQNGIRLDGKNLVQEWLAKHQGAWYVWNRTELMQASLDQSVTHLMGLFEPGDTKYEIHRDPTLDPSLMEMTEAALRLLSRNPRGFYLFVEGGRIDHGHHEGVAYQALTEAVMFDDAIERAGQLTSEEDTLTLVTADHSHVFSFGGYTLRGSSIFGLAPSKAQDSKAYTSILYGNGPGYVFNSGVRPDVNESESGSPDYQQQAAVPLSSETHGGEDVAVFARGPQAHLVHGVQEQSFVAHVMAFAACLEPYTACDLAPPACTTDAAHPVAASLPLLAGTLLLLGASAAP

[7] = molecular target: Intestinal-type alkaline phosphatase (Mus musculus, UniProt P24822); experiment: PubChem AID 488874; format: functional
Chain of Intestinal-type alkaline phosphatase (Mus musculus, UniProt P24822) (P24822 whole entry): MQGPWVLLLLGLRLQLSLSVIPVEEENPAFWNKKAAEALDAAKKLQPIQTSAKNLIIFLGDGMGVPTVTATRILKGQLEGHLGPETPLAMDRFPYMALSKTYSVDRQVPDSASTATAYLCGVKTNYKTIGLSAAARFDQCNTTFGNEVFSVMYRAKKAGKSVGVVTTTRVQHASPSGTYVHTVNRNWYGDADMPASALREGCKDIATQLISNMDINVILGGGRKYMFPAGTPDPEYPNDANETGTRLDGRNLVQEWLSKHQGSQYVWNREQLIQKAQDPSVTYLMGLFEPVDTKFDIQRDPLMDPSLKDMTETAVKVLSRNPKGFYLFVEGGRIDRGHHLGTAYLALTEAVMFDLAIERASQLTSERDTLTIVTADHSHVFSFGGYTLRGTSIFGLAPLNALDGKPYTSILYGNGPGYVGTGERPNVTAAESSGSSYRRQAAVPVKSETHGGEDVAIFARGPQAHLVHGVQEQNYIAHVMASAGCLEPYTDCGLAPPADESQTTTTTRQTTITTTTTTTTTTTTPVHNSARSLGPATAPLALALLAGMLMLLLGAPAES

[8] = molecular target: T1, Intestinal-type alkaline phosphatase; experiment: human IAP activators, dose response, biochemical, luminescent, uHTS hits, set 2 (AID 488817); format: functional;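 note: potency of activators that raise enzyme activity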
[9] = molecular target: T2, Alkaline phosphatase, tissue-nonspecific isozyme (Homo sapiens, UniProt P05186); experiment: TNAP enzyme activators, dose response, selectivity assay for human IAP activator project, biochemical, TNAP isozyme, human IAP uHTS hits (AID 488886); format: functional;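 note: potency of compounds raising TNAP activity as a selectivity check on IAP activators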
T2 sequence (P05186 whole entry): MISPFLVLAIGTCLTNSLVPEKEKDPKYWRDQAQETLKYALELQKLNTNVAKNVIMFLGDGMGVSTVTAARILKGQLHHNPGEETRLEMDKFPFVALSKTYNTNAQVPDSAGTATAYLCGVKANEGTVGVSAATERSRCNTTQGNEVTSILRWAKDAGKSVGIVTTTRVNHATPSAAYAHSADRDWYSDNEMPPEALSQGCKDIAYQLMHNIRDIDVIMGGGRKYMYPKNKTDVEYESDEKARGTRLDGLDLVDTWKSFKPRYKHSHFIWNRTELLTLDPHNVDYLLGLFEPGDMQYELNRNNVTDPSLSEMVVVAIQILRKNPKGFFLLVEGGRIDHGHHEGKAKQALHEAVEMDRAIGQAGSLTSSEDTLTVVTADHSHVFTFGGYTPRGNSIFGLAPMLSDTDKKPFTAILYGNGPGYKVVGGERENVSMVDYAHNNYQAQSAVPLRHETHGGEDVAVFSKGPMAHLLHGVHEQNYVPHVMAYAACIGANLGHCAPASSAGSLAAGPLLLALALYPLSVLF

Bcl-2-like protein 10 = Bcl-2-like protein 10 (Homo sapiens, UniProt Q9HD36); experiment: displacers of TR3 peptide from Bcl-B, primary screen, selectivity assay for Bfl-1 inhibitor project, biochemical, fluorescence polarization, FITC-TR3 peptide (AID 748);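 note: fluorescence polarization from a fluorescein-labelled TR3 peptide binding purified Bcl-B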
Chain of Bcl-2-like protein 10 (Q9HD36 whole entry): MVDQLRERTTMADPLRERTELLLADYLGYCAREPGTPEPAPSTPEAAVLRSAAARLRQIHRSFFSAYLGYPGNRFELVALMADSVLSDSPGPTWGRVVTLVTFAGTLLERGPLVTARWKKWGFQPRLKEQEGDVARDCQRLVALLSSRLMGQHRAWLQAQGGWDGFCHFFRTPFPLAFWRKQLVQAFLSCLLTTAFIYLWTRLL

[10] = Luminescence Cell-Based Dose Confirmation HTS to Identify Activators of 5'UTR Stem-Loop Driven Alpha-Synuclein mRNA Translation in H4 Neuroglioblastoma Cells. [Related pubchem assays: 1829 (Project Summary), 1814 (Primary HTS)]; format: functional
[11] = Luminescence Cell-Based Dose Response HTS to Identify Activators of 5'UTR Stem-Loop Driven Prion Protein mRNA Translation in H4-C Neuroglioblastoma Cells. [Related pubchem assays: 1829 (Project Summary), 1814 (Primary HTS)]; format: functional
[12] = Luminescence Cell-Based Dose Response HTS to Identify Activators of Luciferase Translation or Activity in H4 […] Cells. [Related pubchem assays: 1829 (Project Summary), 1814 (Primary HTS)]; format: functional
H4 = experiment: Luminescence Cell-Based Dose Response HTS to Identify Activators of 5'UTR Stem-Loop Driven Prion Protein mRNA Translation in H4 Neuroglioblastoma Cells. [Related pubchem assays: 1829 (Project Summary), 1814 (Primary HTS)]; format: functional; settings: Homo sapiens
[13] = Luminescence Cell-Based Dose Retest to Confirm Activators of 5'UTR Stem-Loop Driven Alpha-Synuclein mRNA Translation in H4 Neuroglioblastoma Cells. [Related pubchem assays (depositor defined):AID1813, AID1829]; format: functional
[14] = Luminescence Cell-Based Dose Response HTS to Identify Activators of Luciferase Translation or Activity in H4-C Neuroglioblastoma Cells. [Related pubchem assays: 1829 (Project Summary), 1814 (Primary HTS)]; format: functional
[15] = molecular target: Photoreceptor-specific nuclear receptor (Homo sapiens, UniProt Q9Y5X4); format: functional, cell-based;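 note: CHO-S cells with Gal4-NCOR and VP16-NR2E3 two-hybrid luciferase reporter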
Chain of Photoreceptor-specific nuclear receptor (Q9Y5X4 whole entry, the tested form may be a part): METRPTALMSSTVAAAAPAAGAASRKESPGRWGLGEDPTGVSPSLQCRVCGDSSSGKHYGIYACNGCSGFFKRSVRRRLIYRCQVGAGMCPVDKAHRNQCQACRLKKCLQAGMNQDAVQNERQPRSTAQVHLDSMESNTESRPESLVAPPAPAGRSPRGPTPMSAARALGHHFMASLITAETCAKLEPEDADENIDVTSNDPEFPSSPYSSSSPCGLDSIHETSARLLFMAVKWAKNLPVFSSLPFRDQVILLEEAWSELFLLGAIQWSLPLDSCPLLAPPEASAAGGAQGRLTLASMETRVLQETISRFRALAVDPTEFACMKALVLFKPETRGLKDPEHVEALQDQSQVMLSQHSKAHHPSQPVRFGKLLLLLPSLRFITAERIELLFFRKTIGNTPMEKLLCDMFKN

Vasopressin V1a receptor = Vasopressin V1a receptor (Homo sapiens, UniProt P37288); experiment: Counterscreen for Oxytocin Receptor (OXTR) agonists: Fluorescence-based cell-based high throughput dose response assay to identify agonists of the vasopressin 1 receptor (V1R). [Related pubchem assays: 2435 (Primary screen (OXTR agonists in singlicate)), 434991 (Counterscreen (V1R agonists in triplicate)), 2482 (Summary (OXTR agonists)) …; format: functional
Oxytocin receptor = Oxytocin receptor (Homo sapiens, UniProt P30559); experiment: Fluorescence-based cell-based high throughput dose response assay for agonists of the Oxytocin Receptor (OXTR). [Related pubchem assays: 2435 (Primary screen (OXTR agonists in singlicate)), 434991 (Counterscreen (V1R agonists in triplicate)), 2482 (Summary (OXTR agonists)), 434963 (Confirmation screen (OXTR agonists in triplicate))]; format: functional
Chain of Oxytocin receptor (P30559 whole entry): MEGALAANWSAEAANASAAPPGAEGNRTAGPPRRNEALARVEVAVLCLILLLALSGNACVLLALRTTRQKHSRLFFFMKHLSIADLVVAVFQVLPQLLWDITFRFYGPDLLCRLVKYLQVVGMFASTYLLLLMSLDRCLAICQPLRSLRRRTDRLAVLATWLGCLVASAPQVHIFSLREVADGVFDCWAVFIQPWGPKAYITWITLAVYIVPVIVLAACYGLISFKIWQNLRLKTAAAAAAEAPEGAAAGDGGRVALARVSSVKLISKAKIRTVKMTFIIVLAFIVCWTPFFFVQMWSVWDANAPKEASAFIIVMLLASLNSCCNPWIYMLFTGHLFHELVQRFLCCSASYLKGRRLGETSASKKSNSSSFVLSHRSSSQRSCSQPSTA

[16] = molecular target: Neuropeptide Y receptor type 2 (Homo sapiens, UniProt P49146); experiment: Fluorescence-based cell-based high-throughput dose response assay for agonists of NPY-Y2. [Related pubchem assays: 1703 (Screening assay (CNGC inhibitors).), 1359 (Screening assay (NPY-Y2 potentiators or agonists).), 1304 (Screening assay (NPY-Y1 potentiators or agonists).), 1710 (Screening assay (NPY-Y2 agonists).), 1791 (Summary AID.)]; format: functional
Chain of Neuropeptide Y receptor type 2 (P49146 whole entry): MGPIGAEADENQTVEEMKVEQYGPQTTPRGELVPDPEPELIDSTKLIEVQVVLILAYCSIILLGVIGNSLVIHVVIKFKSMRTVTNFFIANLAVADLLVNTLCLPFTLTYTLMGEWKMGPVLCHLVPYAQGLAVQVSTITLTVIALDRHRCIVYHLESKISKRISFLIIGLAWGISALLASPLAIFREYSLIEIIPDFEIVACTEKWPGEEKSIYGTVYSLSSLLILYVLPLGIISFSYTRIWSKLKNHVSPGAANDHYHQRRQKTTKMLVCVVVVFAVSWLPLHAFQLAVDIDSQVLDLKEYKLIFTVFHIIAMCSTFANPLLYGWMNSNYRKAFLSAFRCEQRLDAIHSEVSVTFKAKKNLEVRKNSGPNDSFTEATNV

[17] = molecular target: Neuropeptide Y receptor type 1 (Homo sapiens, UniProt P25929); experiment: Fluorescence-based counterscreen for agonists of NPY-Y2: cell-based high-throughput dose response assay for agonists of NPY-Y1.; format: functional
Chain of Neuropeptide Y receptor type 1 (P25929 whole entry): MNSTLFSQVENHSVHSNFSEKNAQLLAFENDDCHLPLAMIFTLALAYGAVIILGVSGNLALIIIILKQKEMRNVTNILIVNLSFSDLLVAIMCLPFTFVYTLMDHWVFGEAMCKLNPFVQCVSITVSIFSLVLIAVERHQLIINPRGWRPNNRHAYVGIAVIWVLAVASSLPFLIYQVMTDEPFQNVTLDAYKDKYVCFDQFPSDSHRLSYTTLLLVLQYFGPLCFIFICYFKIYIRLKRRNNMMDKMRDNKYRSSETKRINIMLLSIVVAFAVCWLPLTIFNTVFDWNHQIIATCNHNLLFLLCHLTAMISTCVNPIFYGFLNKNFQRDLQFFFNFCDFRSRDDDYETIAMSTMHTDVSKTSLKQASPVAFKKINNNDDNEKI

HEK293 = experiment: Fluorescence-based counterscreen for potentiators or agonists of NPY-Y2: cell-based high-throughput dose response assay to identify inhibitors of cyclic nucleotide gated ion channel (CNGC) activity. In this assay, the parental HEK293 cell line transfected with a cyclic-nucleotide gated ion channel (CNGC)-based cAMP sensor is used to measure inhibition of isoproterenol-induced CNGC activity by test compound.; format: functional; settings: Homo sapiens;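 note: stimulus is 1 µM isoproterenol at EC100 plus PDE inhibitor Ro 20-1724 at 25 µM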
[18] = molecular target: Lysosomal acid glucosylceramidase (Homo sapiens, UniProt P04062); experiment: Dose response cell-based high throughput screening assay to identify enhancers of beta-glucosidase activity. [Related pubchem assays: 784 ]; format: functional
Chain of Lysosomal acid glucosylceramidase (P04062 whole entry): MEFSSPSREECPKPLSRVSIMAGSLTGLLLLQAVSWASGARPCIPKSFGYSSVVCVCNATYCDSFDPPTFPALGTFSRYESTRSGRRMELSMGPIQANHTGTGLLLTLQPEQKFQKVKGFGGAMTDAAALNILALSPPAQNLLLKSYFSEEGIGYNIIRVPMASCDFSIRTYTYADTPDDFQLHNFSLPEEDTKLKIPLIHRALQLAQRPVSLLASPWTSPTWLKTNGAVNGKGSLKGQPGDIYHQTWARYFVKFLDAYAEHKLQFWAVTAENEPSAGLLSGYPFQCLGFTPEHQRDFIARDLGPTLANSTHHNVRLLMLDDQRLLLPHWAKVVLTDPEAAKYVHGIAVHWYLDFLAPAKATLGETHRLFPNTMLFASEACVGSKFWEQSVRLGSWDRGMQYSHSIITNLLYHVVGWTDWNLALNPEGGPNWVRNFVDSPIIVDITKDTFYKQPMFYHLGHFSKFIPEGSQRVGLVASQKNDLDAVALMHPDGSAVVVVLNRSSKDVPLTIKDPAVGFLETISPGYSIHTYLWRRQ

[19] = molecular target: Signal transducer and activator of transcription 3 (Homo sapiens, UniProt P40763); experiment: STAT3 activators, late-stage profile, late-stage follow-up, cell-based, STAT1 reporter, BCL3 qPCR, cytotoxicity, panel member STAT3 Activation (AID 2049)
Chain of Signal transducer and activator of transcription 3 (P40763 whole entry): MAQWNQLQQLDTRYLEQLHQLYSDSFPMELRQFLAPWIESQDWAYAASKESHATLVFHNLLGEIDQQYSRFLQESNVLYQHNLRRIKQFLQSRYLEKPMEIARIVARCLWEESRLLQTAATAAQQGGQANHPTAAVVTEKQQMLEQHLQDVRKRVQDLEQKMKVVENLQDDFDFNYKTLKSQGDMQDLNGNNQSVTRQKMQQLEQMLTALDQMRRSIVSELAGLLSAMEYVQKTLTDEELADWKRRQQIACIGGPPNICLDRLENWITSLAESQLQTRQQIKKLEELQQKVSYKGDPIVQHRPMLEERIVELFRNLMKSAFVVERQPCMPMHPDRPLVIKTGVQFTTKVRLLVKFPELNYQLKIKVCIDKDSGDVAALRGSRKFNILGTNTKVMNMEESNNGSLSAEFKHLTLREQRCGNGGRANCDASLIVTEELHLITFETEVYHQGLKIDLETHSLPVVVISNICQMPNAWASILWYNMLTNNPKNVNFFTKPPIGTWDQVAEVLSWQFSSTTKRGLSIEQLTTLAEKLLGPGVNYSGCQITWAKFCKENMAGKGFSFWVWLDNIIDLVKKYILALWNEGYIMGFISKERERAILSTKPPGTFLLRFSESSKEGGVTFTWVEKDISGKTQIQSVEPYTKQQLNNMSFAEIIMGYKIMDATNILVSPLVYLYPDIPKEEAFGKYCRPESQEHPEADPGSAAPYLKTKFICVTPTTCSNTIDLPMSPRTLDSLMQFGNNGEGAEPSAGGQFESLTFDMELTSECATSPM

[20] = Shn3 3'UTR reporter inhibitors, dose response, cell-based, Clone20 osteoblasts, firefly luciferase, cherry-picked (AID 624132); format: functional;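 note: firefly luciferase luminescence from reporter carrying the Shn3 3'UTR in osteoblasts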
[21] = reduction of Shn3 3'UTR firefly luciferase signal, dose response, Schnurri-3 inhibitor project, cell-based, Clone20 osteoblasts, cherry-pick, set 2 (AID 720490); format: functional;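 note: actives lower the luminescence signal as inhibitors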
[22] = Luminescence-based counterscreen assay for KLF5 inhibitors: dose response cell-based high throughput screening assay to identify cytotoxic compounds using the IEC-6 intestinal epithelial cell line. [Related pubchem assays: 1700 (Primary screen.), 1834 (Confirmation screen.), 1858 (Summary AID.), 1905 (Counterscreen.)]; format: functional
[23] = HepG2 cell cytotoxicity, dose response, cytotoxicity control for Shn3 inhibitor project, CellTiter-Glo, cherry-picked (AID 624134); format: functional, cell-based
[24] = cytotoxicity in HEK-293T cells, dose response, cytotoxicity control for TCR NF-kB inhibitor project, luminescence, T-cell screen hits (AID 489026); format: functional, cell-based;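 note: cells exposed to compound about 14 hours before the viability readout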
Protein skinhead-1 = molecular target: T3, Protein skinhead-1 (Caenorhabditis elegans, UniProt P34707); format: functional
T3 sequence (P34707 whole entry): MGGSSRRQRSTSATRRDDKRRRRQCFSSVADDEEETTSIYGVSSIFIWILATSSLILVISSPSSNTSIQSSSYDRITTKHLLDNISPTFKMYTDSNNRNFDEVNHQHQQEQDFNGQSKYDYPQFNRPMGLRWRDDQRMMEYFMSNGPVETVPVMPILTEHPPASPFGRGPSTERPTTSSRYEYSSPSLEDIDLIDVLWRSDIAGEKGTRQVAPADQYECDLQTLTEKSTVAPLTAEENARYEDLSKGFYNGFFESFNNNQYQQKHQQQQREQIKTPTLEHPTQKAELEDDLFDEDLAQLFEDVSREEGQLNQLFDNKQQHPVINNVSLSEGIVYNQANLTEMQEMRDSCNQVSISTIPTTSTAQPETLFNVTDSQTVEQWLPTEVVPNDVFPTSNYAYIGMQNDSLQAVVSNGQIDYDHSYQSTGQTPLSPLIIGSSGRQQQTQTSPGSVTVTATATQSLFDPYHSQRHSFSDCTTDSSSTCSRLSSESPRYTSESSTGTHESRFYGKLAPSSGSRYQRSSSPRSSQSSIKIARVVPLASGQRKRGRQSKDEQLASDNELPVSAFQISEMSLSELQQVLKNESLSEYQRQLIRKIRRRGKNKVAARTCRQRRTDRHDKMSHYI

[25] = molecular target: NACHT, LRR and PYD domains-containing protein 3 (Homo sapiens, UniProt Q96P20); experiment: NALP3 inhibitors in yeast, dose response, luminescent (AID 488799); format: functional
[26] = molecular target: Eukaryotic translation initiation factor 4H (Homo sapiens, UniProt Q15056); experiment: human eIF4H binding inhibitors, primary screen, translation initiation inhibitor project, biochemical, uHTS, fluorescence polarization (AID 2012)
[27] = molecular target: T4, Heat shock factor protein 1 (Mus musculus, UniProt P38532); experiment: inhibition of MG132-induced HSE-luciferase signal, confirmation, cell-based, NIH3T3, luminescence, dose retest (AID 2382); format: functional;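 note: NIH3T3 fibroblasts with HSF1-driven luciferase reporter stressed by proteasome inhibitor MG132; luminescence from HSF1-driven luciferase expression after 8 hours of MG132 stress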
T4 sequence (P38532 whole entry): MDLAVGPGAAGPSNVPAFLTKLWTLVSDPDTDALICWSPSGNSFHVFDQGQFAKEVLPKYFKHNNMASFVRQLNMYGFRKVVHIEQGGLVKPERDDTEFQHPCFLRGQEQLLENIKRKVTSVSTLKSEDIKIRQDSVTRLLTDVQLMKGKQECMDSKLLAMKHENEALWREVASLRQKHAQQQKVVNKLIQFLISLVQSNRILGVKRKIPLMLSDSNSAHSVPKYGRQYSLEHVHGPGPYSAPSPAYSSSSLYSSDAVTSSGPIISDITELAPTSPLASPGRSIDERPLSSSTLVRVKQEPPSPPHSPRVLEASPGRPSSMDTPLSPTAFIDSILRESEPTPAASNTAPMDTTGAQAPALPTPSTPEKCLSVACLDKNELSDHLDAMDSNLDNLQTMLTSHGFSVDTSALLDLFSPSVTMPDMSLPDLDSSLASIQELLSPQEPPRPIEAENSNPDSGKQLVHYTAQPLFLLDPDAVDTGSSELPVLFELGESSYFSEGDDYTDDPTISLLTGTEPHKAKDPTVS

[28] = molecular target: Polyadenylate-binding protein 1 (Homo sapiens, UniProt P11940); experiment: PABP poly(A) RNA binding inhibitors, primary screen, biochemical, fluorescence polarization, uHTS (AID 2014)

Chain of Cytochrome P450 3A4 (P08684 whole entry, the tested form may be a part): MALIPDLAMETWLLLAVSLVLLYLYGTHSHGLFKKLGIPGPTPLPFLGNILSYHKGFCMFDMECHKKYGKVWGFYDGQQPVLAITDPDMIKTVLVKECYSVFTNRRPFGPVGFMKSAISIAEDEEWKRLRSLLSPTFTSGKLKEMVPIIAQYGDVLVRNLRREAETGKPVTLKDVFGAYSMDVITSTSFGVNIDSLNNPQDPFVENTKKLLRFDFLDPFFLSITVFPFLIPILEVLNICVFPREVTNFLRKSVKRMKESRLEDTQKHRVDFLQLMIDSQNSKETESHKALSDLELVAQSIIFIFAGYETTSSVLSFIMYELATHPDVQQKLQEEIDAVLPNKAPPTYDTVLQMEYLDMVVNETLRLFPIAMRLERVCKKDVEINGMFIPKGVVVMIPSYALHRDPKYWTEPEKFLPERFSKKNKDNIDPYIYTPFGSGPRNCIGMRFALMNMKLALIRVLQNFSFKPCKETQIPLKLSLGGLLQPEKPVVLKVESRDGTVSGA

CN1C[C@@H]2C(c3ccccc3)C3(c4ccccc4)CC2(C3)[C@H]1c1ccccc1 (stereo partly specified)
AC50 (Cytochrome P450 3A4): 5.01 µM (inconclusive)

CCC(C)(C)c1ccc(Oc2ccc(N)cc2)cc1
EC50 [1]: 0.216 µM (active)
EC50 [2]: < 0.1 µM (active)
EC50 (cells): 0.482 µM (active)
EC50 [3]: < 0.1 µM (active)
EC50 [4]: 0.432 µM (active)
EC50 [5]: 0.476 µM (active)

COc1ccccc1C1=NN(C2=NN=C(N)Cc3ncnn32)C(O)(C(F)(F)F)C1 (stereo unspecified)
EC50 [6]: 7.06 µM (active)
IC50 [7]: 42.2 µM (active)
EC50 [8]: 9.66 µM (active)
EC50 [9]: 11.7 µM (active)

COc1ccc(OC)c(NC(=O)CCN2CCC(C)CC2)c1
IC50 (Bcl-2-like protein 10): > 100 µM (inactive)

O=C1CCCCCN1Cc1nnc(SCc2nc3ccccc3s2)n1-c1ccccn1
EC50 [10]: 1.08 µM (active)
EC50 [11]: 1.89 µM (active)
EC50 [12]: 25 µM (active)
EC50 (H4): 80.9 µM (inconclusive)
EC50 [13]: > 195 µM (inactive)
EC50 [14]: 0.207 µM (active)

Cc1ccccc1Cn1nnc(C(=O)Nc2cccc(C)c2C)c1N
IC50 [15]: 39.8 µM (inactive)
EC50 (Vasopressin V1a receptor): > 29.9 µM (not active)
EC50 (Oxytocin receptor): > 29.9 µM (not active)

Fc1ccc(Nc2c(-c3ccco3)nc3ccccn23)cc1
EC50 [16]: 10.6 µM (not active)
EC50 [17]: 6.46 µM (active)
EC50 (HEK293): 17.9 µM (not active)

CCOC(=O)COc1ccc(-c2nnc(-c3ccccc3)o2)cc1
EC50 [18]: > 10 µM (not active)

COc1ccccc1NC(=O)c1cc(-c2ccccc2)on1
EC50 [19]: 9.62 µM (active)

c1ccc(-c2noc(-c3ccc4ccccc4c3)n2)nc1
AC50 [20]: 1.98 µM (active)
AC50 [21]: 5.85 µM (active)
IC50 [22]: 31.9 µM (not active)
AC50 [23]: 27.6 µM (active)
IC50 [24]: > 80 µM (inactive)
IC50 (Protein skinhead-1): > 100 µM (inactive)

CCCCCC(=O)N1CCN(CC/N=C/C2=C(O)CC(c3ccco3)CC2=O)CC1 (stereo unspecified)
IC50 [25]: 7.3 µM (active)

COc1ccccc1/N=C1/SCCCN1C
IC50 [26]: > 100 µM (inactive)
EC50 [27]: > 195 µM (not active)
IC50 [28]: 3.57 µM (active)
